For 29 compounds, IC50 results are on record in patent publication US20230014962A1, “Quinoline compound and use thereof” (SKYRUN PHARMA CO., LTD., priority 2019, published 2023).

pIC50: −log10 of the molar value.

In general, pIC50 refers to the IC50 on a negative log10 scale, so that one unit is a factor of ten.

Assay [1] addresses T1, FGFR4 (Homo sapiens, UniProt P22455).
T1 construct: purchased
The experiment in a line: Determination of FGFR4 inhibitory activity by fluorescence resonance energy transfer (FRET) method. The format is biochemical. The settings on record: FGFR4 from purchased kit, read-out: In vitro FGFR4 kinase inhibitory activity IC50. From the text:
1. Determination of FGFR4 Inhibitory Activity of Target Compound
FGFR4 is obtained by direct purchase of a kit.

For assay [2], the system named is Hep3B cell. In words: Determination of Hep3B cell inhibitory activity (Cell Titer-Glo, 72 h). The note with it: Hep3B cells, 72 h incubation, Cell Titer-Glo (CTG) method. The format is cell-based. The text has this:
2. Determination of Hep3B Cell Inhibitory Activity of Target Compound
On the technique in general: In ATP-based viability assays light output follows the ATP content of the culture.

T1 sequence (P22455 22-802): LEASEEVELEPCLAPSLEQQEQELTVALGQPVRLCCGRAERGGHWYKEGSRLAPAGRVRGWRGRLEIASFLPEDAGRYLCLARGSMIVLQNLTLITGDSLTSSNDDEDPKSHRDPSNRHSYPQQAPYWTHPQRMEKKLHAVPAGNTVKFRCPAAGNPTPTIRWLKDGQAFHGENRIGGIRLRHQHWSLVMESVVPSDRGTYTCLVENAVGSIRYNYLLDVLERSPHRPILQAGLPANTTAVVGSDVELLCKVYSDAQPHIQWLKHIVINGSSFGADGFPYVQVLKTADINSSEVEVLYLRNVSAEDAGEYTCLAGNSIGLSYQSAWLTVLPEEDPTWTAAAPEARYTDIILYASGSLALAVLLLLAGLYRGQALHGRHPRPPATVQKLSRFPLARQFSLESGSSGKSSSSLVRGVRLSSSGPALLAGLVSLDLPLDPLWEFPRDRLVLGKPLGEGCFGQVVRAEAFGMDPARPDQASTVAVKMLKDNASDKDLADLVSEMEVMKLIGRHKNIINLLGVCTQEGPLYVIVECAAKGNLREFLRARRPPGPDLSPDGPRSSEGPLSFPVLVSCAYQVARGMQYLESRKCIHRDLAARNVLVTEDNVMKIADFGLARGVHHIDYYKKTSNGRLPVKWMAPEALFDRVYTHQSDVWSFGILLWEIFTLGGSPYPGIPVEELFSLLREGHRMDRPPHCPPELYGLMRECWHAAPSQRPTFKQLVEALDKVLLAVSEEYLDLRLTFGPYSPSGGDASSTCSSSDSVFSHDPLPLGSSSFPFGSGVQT

Consider “4-[2,6-dichloro-4-(cyclopropylaminocarbonyDaminobenzeneamino]-6-[(1-acryloyl-1,2,3,6-tetrahydropyridine)-4-yl]-7-methoxyquinoline [Compound I-27]”, for which the negative logarithm of the IC50 (pIC50) in assay [1] was over 8.30; in assay [2], over 6.30. On to `C=CC(=O)N1CC=C(c2cc3c(Oc4ccc(NC(=O)NC5CC5)cc4)ccnc3cc2OC)CC1` [Compound I-20, 4-[4-(cyclopropylaminocarbonyl)aminophenoxy]-6-[(1-acryloyl-1,2,3,6-tetrahydropyridine)-4-yl]-7-methoxyquinoline], for which the pIC50 in assay [1] is over 8.30; in assay [2] (Homo sapiens), over 6.30.

Take `C=CC(=O)N1CC=C(c2cc3c(Oc4ccc(NC(=O)NC(C)(C)C)c(Cl)c4)ccnc3cc2OC)CC1` [Compound I-16, 4-[3-chloro-4-(tert-butylaminocarbonyl)aminophenoxy]-6-[(1-acryloyl-1,2,3,6-tetrahydropyridine)-4-yl]-7-methoxyquinoline]: the negative-log IC50 (pIC50) is over 8.30 in assay [1] and over 7.30 in assay [2] (Homo sapiens).

For `C=CC(=O)N1CC=C(c2cc3c(Oc4ccc(NC(=O)NC5CC5)c(Cl)c4)ccnc3cc2OC(C)C)CC1` [Compound I-11, 4-[3-chloro-4-(cyclopropylaminocarbonyl)aminophenoxy]-6-[(1-acryloyl-1,2,3,6-tetrahydropyridine)-4-yl]-7-isopropylquinoline], the negative-log IC50 (pIC50) in assay [1] was over 8.70; in assay [2] (Homo sapiens), over 7.30. For the compound “4-[3-chloro-4-(cyclopropylaminocarbonyl)aminophenoxy]-6-[(1-diethylphosphorylacetyl-1,2,3,6-tetrahydropyridine)-4-yl]-7-methoxyquinoline [Compound I-2]”, the pIC50 was over 8.30 in assay [1] and over 7.00 in assay [2]. On the same counts, the results for “4-[3-chloro-4-(cyclopropylaminocarbonyl)aminophenoxy]-6-[(1-acryloyl-1,2,3,6-tetrahydropyridine)-4-yl]-7-ethylquinoline [Compound I-13]” are over 8.70 and over 7.30.

Consider “4-[3-chloro-4-cyclohexanecarbonylaminophenoxy]-6-[(1-chloroyl-1,2,3,6-tetrahydropyridine)-4-yl]-7-methoxyquinoline [Compound I-7]”, for which the values for the negative logarithm of the IC50 (pIC50) in assay [1] and in assay [2] were over 8.70 and over 7.30, respectively. Consider `C=CC(=O)N1CC=C(c2cc3c(Oc4ccc(NC(=O)NC5CC5)c(Cl)c4)ccnc3cc2OC)C1` [Compound I-22, 4-[3-chloro-4-(cyclopropylaminocarbonyl)aminophenoxy]-6-[(1-acryloyl-2,5-dihydropyrrole)-3-yl]-7-methoxyquinoline], for which the values for the pIC50 in assay [1] and in assay [2] (Homo sapiens) were over 8.30 and over 7.00, respectively. In the case of “4-[3-chloro-4-(cyclopropylaminocarbonyl)aminophenoxy]-6-[(1-acryloyl-1,2,3,6-tetrahydropyridine)-4-yl]-7-methoxyquinoline [Compound I-1]”, the pIC50 in assay [1] is over 8.70; in assay [2] it was over 7.30. Take `C=CS(=O)(=O)N1CC=C(c2cc3c(Oc4ccc(NC(=O)NC5CC5)c(Cl)c4)ccnc3cc2OC)CC1` [Compound I-3, 4-[3-chloro-4-(cyclopropylaminocarbonyl)aminophenoxyl]-6-[(1-ethylenesulfonyl-1,2,3,6-tetrahydropyridine)-4-yl]-7-methoxyquinoline]: the negative-log IC50 (pIC50) in assay [1] is over 8.30; in assay [2] (Homo sapiens) it was over 7.00. With `C=CC(=O)N1CC=C(c2cc3c(Oc4ccc(NC(=O)NC5CC5)c(F)c4)ccnc3cc2OC)CC1` [Compound I-19, 4-[3-fluoro-4-(cyclopropylaminocarbonyl)aminophenoxy]-6-[(1-acryloyl-1,2,3,6-tetrahydropyridine)-4-yl]-7-methoxyquinoline], the negative-log IC50 (pIC50) in assay [1] was over 8.70; in assay [2] (Homo sapiens) it was over 7.30. The matching figures for `C=CC(=O)N1CC=C(c2cc3c(Oc4ccc(NC(=O)Nc5ccccc5)c(Cl)c4)ccnc3cc2OC)CC1` [Compound I-17, 4-[3-chloro-4-(phenylaminocarbonyl)aminophenoxy]-6-[(1-acryloyl-1,2,3,6-tetrahydropyridine)-4-yl]-7-methoxyquinoline]: over 8.70 and over 7.30. “4-[3-chloro-4-(cyclopentylaminocarbonyl)aminophenoxy]-6-[(1-acryloyl-1,2,3,6-tetrahydropyridine)-4-yl]1-7-methoxyquinoline [Compound I-9]”: the pIC50 in assay [1] is over 8.30; in assay [2], over 7.00. Take `C=CC(=O)N1CC=C(c2cc3c(Oc4ccc(NC(=O)NC5CC5)c(Cl)c4)ccnc3cc2OC2CCCC2)CC1` [Compound I-12]: the pIC50 was over 8.30 in assay [1] and over 7.00 in assay [2] (Homo sapiens). Turning to “4-[3-chloro-4-(cyclopropylaminocarbonyl)aminophenoxy]-6-[(1-chloroyl-1,2,3,6-tetrahydropyridine)-4-yl]-7-methoxyquinoline [Compound I-4]”, the pIC50 in assay [1] is over 8.30; in assay [2], over 7.00. In the case of “4-[3-chloro-4-(cyclopropylaminocarbonyl)aminophenoxy]-6-[(1-acryloyl-piperidine)-4-yl]-7-methoxyquinoline [Compound I-8]”, the pIC50 was over 8.70 in assay [1] and over 7.30 in assay [2]. Consider `C=CC(=O)N1CC=C(c2cc3c(Oc4ccc(NC(=O)NC5CC5)cc4F)ccnc3cc2OC)CC1` [Compound I-18, 4-[2-fluoro-4-(cyclopropylaminocarbonyl)aminophenoxy]-6[(1-acryloyl-1,2,3,6-tetrahydropyridine)-4-yl]-7-methoxyquinoline], for which the values for the negative logarithm of the IC50 (pIC50) in assay [1] and in assay [2] were over 8.30 and over 7.30, respectively. For the compound `C=CC(=O)N1CC=C(c2cc3c(Oc4ccc(NC(=O)C5CCCC5)c(Cl)c4)ccnc3cc2OC)CC1` [Compound I-6], the negative logarithm of the IC50 (pIC50) in assay [1] is over 8.30; in assay [2] (Homo sapiens) it was over 7.00. Consider “4-[3-chloro-4-cyclopropanecarboxylaminophenoxy]-6-[(1-chloroyl-1,2,3,6-tetrahydropyridine)-4 -yl]-7-methoxyquinoline [Compound I-5]”, for which the values for the negative logarithm of the IC50 (pIC50) in assay [1] and in assay [2] were over 8.30 and over 7.00, respectively. As to `C=CC(=O)N1CC=C(c2cc3c(Nc4ccc(NC(=O)NC5CC5)c(Cl)c4)ccnc3cc2OC)CC1` [Compound I-26, 4-[3-chloro-4-(cyclopropylaminocarbonyl)aminophenylamino]-6-[(1-acryloyl-1,2,3,6-tetrahydropyridine)-4-yl]-7-methoxyquinoline], the pIC50 in assay [1] was over 8.30; in assay [2] (Homo sapiens) it was over 6.30. `C=CC(=O)N1CC=C(c2cc3c(Oc4ccc(NC(=O)NC5CCCCC5)c(Cl)c4)ccnc3cc2OC)CC1` [Compound I-15, 4-[3-chloro-4-(cyclohexylaminocarbonyl)aminophenoxy]-6-[(1-acryloyl-1,2,3,6-tetrahydropyridine)-4-yl]-7-methoxyquinoline] showed a pIC50 in assay [2] (Homo sapiens) of over 7.30. As for `C=CC(=O)N1CC=C(c2cc3c(Oc4ccc(C(=O)NC5CC5)c(Cl)c4)ccnc3cc2OC)CC1` [Compound I-24, 4-[3-chloro-4-(cyclopropylamino)carbonylphenoxy]-6-[(1-acryloyl-1,2,3,6-tetrahydropyridine)-4-yl]-7-methoxyquinoline], the pIC50 was over 8.70 in assay [1] and over 7.30 in assay [2] (Homo sapiens). The matching figures for `C=CC(=O)N1CCC=C(c2cc3c(Oc4ccc(NC(=O)NC5CC5)c(Cl)c4)ccnc3cc2OC)C1` [Compound I-21, 4-[3-chloro-4-(cyclopropylaminocarbonyl)aminophenoxy]-6-[(1-acryloyl-1,2,5,6-tetrahydropyridine)-3-yl]-7-methoxyquinoline]: over 8.30 and over 6.30. For `C=CC(=O)N1CC=C(c2cc3c(Oc4ccc(NC(=O)NC5CC5)c(Cl)c4)ccnc3cc2OCc2ccccc2)CC1` [Compound I-10], the pIC50 in assay [1] was over 8.30; in assay [2] (Homo sapiens), over 7.00. Consider `COc1cc2nccc(Oc3ccc(NC(=O)NC4CC4)c(Cl)c3)c2cc1C(N)=O` [Lenvatinib, reference compound], for which the values for the negative logarithm of the IC50 (pIC50) in assay [1] and in assay [2] (Homo sapiens) were 7.37 and over 6.30, respectively. On the same counts, the results for `C=CC(=O)N1CC=C(c2cc3c(Sc4ccc(NC(=O)NC5CC5)c(Cl)c4)ccnc3cc2OC)CC1` [Compound I-25, 4-[3-chloro-4-(cyclopropylaminocarbonyl)aminophenylmercapto]-6-[(1-acryloyl-1,2,3,6-tetrahydropyridine)-4-yl]-7-methoxyquinoline] are over 8.30 and over 7.00. The matching figures for `C=CC(=O)N1CC=C(c2cc3c(Oc4ccc(NC(=O)NC5CC5)c(Cl)c4)ccnc3cc2OCCN2CCOCC2)CC1` [Compound I-14]: over 8.30 and over 7.00. The matching figures for `C=CC(=O)N1CCC(c2cc3c(Oc4ccc(NC(=O)NC5CC5)c(Cl)c4)ccnc3cc2OC)C1` (centres unmarked) [Compound I-23, 4-[3-chloro-4-(cyclopropylaminocarbonyl)aminophenoxy]-6-[(1-acryloyl-tetrahydropyrrole)-3-yl]-7-methoxyquinoline]: over 8.30 and over 6.30.

With `C=CC(=O)Nc1cccc(C)c1Nc1ncc2cc(-c3c(Cl)c(OC)cc(OC)c3Cl)ccc2n1` [Blu9931, reference compound], the pIC50 in assay [2] (Homo sapiens) was 6.76.
